PubChem BioAssay (NCI)
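Step 1: Grow cells in 96-well plates. Step 2: Expose to compound for 48 hours at 5 concentrations. Step 3: Interpolate endpoints linearly; if unreached, use highest concentration. The concentration for full growth arrest is given as TGI.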 Where a SMILES comes first, the peptide text is derived from it. The star is where a group is joined. Cbz = O=C(OCc1ccccc1)*; Boc = CC(C)(C)OC(=O)*; Bn = c1ccc(C*)cc1

What was measured:
Test in all cases: NCI-60 cell line screen, 48 h
LOX IMVI melanoma = system: LOX IMVI melanoma
SF-268 CNS = system: SF-268 CNS
UACC-257 melanoma = system: UACC-257 melanoma
DLD-1 colon = system: DLD-1 colon
DMS 114 small cell lung = system: DMS 114 small cell lung
DMS 273 small cell lung = system: DMS 273 small cell lung
HOP-18 NSCLC = system: HOP-18 NSCLC
KM20L2 colon = system: KM20L2 colon
LXFL 529 NSCLC = system: LXFL 529 NSCLC
M19-MEL melanoma = system: M19-MEL melanoma
SNB-78 CNS = system: SNB-78 CNS
XF 498 CNS = system: XF 498 CNS

Cc1nc2ccc(F)cc2c2c1CCO2
TGI (LOX IMVI melanoma): > 100 µM
TGI (SF-268 CNS): > 100 µM
TGI (UACC-257 melanoma): > 100 µM

CC1(C)C2CCC(N)(C2)C1N (stereo not drawn)
TGI (LOX IMVI melanoma): > 100 µM
TGI (UACC-257 melanoma): > 100 µM

O=C(O)CCC(NC(=O)c1ccc(Nc2cnc3ccc(C(F)(F)F)cc3n2)cc1)C(=O)O (stereo not drawn)
TGI (LOX IMVI melanoma): > 100 µM
TGI (SF-268 CNS): > 100 µM
TGI (UACC-257 melanoma): > 100 µM

COc1cc2c(cc1OC)CC(=O)c1cc(OC)c(OC)cc1/C=C\2
TGI (LOX IMVI melanoma): > 12.5 µM
TGI (SF-268 CNS): > 12.5 µM
TGI (UACC-257 melanoma): > 12.5 µM

NC1CC(N)c2c(Br)sc(Br)c21 (stereo not drawn)
TGI (LOX IMVI melanoma): > 100 µM
TGI (SF-268 CNS): > 100 µM
TGI (UACC-257 melanoma): > 100 µM

COC(=O)C12OC(C)(C(CC(=O)OC(C)(C)C)C1=O)C1C(=O)N(c3ccccc3)C(=O)C12 (stereo not drawn)
TGI (LOX IMVI melanoma): > 100 µM
TGI (SF-268 CNS): > 100 µM
TGI (UACC-257 melanoma): > 100 µM

CCN(CCCN(CC)C(=O)Nc1ccccc1)C(=O)Nc1ccccc1
TGI (LOX IMVI melanoma): > 100 µM
TGI (UACC-257 melanoma): > 100 µM

CN1CCN(c2cc3c(cc2F)c(=O)c(C(=O)O)cn3C2CC2)CC1CC#N (stereo not drawn)
TGI (LOX IMVI melanoma): > 100 µM
TGI (SF-268 CNS): > 100 µM
TGI (UACC-257 melanoma): > 100 µM

COC(=O)C1CC=C(SC(=O)c2ccccc2)N1C(=O)c1ccccc1 (stereo not drawn)
TGI (SF-268 CNS): > 100 µM
TGI (UACC-257 melanoma): > 100 µM

Cc1cccc2c(=O)c3c(O)cc(O)cc3[nH]c12
TGI (LOX IMVI melanoma): > 10 µM
TGI (SF-268 CNS): > 10 µM
TGI (UACC-257 melanoma): > 10 µM

CCOC(=O)NC(C(=O)OCC)C(F)(F)F (stereo not drawn)
TGI (LOX IMVI melanoma): > 100 µM
TGI (SF-268 CNS): > 100 µM
TGI (UACC-257 melanoma): > 100 µM

CC(C)C1OC2(C)OC(=N)C1(C#N)C(C#N)(C#N)C2C (stereo not drawn)
TGI (LOX IMVI melanoma): 41.5 µM
TGI (SF-268 CNS): 56.4 µM
TGI (UACC-257 melanoma): > 100 µM

OCC1OC(Oc2cc(O)cc(/C=C/c3ccc(O)cc3)c2)C(O)C(O)C1O (stereo not drawn)
TGI (LOX IMVI melanoma): > 100 µM
TGI (UACC-257 melanoma): > 100 µM

CN=CN(C)c1c2ccccc2nc2ccccc12
TGI (LOX IMVI melanoma): > 100 µM
TGI (SF-268 CNS): > 100 µM
TGI (UACC-257 melanoma): > 100 µM

O=C1NC(=S)NC(=O)C1C(c1ccc([N+](=O)[O-])cc1)C1C(=O)NC(=S)NC1=O
TGI (LOX IMVI melanoma): > 100 µM
TGI (UACC-257 melanoma): > 100 µM

N#CCCSC1SC(=C2SC3=C(SCCS3)S2)SC1SCCC#N (stereo not drawn)
TGI (LOX IMVI melanoma): > 100 µM
TGI (SF-268 CNS): > 100 µM
TGI (UACC-257 melanoma): > 100 µM

c1cc(CSP234N5CCN2CCN3CCN4CC5)ccc1CSP123N4CCN1CCN2CCN3CC4
TGI (LOX IMVI melanoma): > 100 µM
TGI (SF-268 CNS): > 100 µM
TGI (UACC-257 melanoma): > 100 µM

C=CCOc1ccc(/C(N=Nc2ccccc2)=N/NC(=O)c2ccccc2)cc1OC
TGI (LOX IMVI melanoma): > 100 µM
TGI (SF-268 CNS): > 100 µM
TGI (UACC-257 melanoma): > 100 µM

Cc1cc(C)nc(NC(=S)Nc2ccccc2Cl)c1
TGI (LOX IMVI melanoma): > 100 µM
TGI (SF-268 CNS): > 100 µM
TGI (UACC-257 melanoma): > 100 µM

Cc1ccccc1NC(=O)C(=O)CC(=O)c1sc(Nc2ccccc2[N+](=O)[O-])nc1C
TGI (LOX IMVI melanoma): > 100 µM
TGI (SF-268 CNS): > 100 µM
TGI (UACC-257 melanoma): > 100 µM

N#CCC(=O)c1cc(OCc2cc(OCc3ccc(Br)cc3)cc(OCc3ccc(Br)cc3)c2)cc(OCc2cc(OCc3ccc(Br)cc3)cc(OCc3ccc(Br)cc3)c2)c1
TGI (SF-268 CNS): > 100 µM
TGI (UACC-257 melanoma): > 100 µM

OCC1OC(NCCNCCNC2OC(CO)C(O)C(O)C2O)C(O)C(O)C1O (stereo not drawn)
TGI (LOX IMVI melanoma): > 100 µM
TGI (SF-268 CNS): > 100 µM
TGI (UACC-257 melanoma): > 100 µM

CC(C)(C)OC(=O)NC(Cc1ccc(OCc2ccccc2)cc1)C(=O)NC(CCCCNC(=O)OCc1ccccc1)C(=O)O (stereo not drawn) (Boc-Tyr(Bn)-Lys(Cbz)-OH; configuration not given here)
TGI (UACC-257 melanoma): > 100 µM

NC1=NNC2(C(=O)N1)c1ccccc1-c1ccccc12
TGI (LOX IMVI melanoma): > 10 µM
TGI (SF-268 CNS): > 10 µM

O=c1[nH]c(=O)n(COCCO)c2ccc(Br)cc12
TGI (LOX IMVI melanoma): > 100 µM
TGI (UACC-257 melanoma): > 100 µM

C(=Nc1ccc(-c2cc(-c3ccccc3)nc3ccc4ccccc4c23)cc1)c1ccccc1
TGI (LOX IMVI melanoma): > 100 µM
TGI (SF-268 CNS): > 100 µM
TGI (UACC-257 melanoma): 92.1 µM

COc1ccc(-c2cc(-c3ccc(Nc4ccnc5cc(Cl)ccc45)cc3)nc(N)c2C#N)cc1
TGI (LOX IMVI melanoma): > 100 µM
TGI (SF-268 CNS): > 100 µM

CCO[C@@H]1CCC(S(=O)c2ccc(C)cc2)=CO1 (stereo partly drawn)
TGI (LOX IMVI melanoma): > 100 µM
TGI (SF-268 CNS): > 100 µM
TGI (UACC-257 melanoma): > 100 µM

COC(=O)[C@@H](O)[C@]1(C(=O)OC)C2O[C@@H](OC)[C@@H]1CCCCCC[C@H]2O
TGI (LOX IMVI melanoma): > 100 µM
TGI (SF-268 CNS): > 100 µM
TGI (UACC-257 melanoma): > 100 µM

CCCc1c(O)c(=O)c2c(OC)cc(OC)c3c4c(OC)cc(OC)c5c(=O)c(O)c(CCC)c(c1c23)c54
TGI (LOX IMVI melanoma): 1.86 µM
TGI (SF-268 CNS): 19.5 µM
TGI (UACC-257 melanoma): 7.06 µM

c1ccc(-c2cs[s+]c2)cc1
TGI (LOX IMVI melanoma): > 100 µM
TGI (SF-268 CNS): > 100 µM
TGI (UACC-257 melanoma): > 100 µM

COc1cc(/C=C/C(=O)OC2C(O)C3CC(OC(=O)c4cc(OC)c(OC)c(OC)c4)CC2N3C)cc(OC)c1OC (stereo not drawn)
TGI (LOX IMVI melanoma): > 50 µM
TGI (SF-268 CNS): > 50 µM
TGI (UACC-257 melanoma): > 50 µM

COc1ccc(C(=O)c2sc(Nc3ccccc3)nc2N)cc1
TGI (LOX IMVI melanoma): > 100 µM
TGI (SF-268 CNS): > 100 µM
TGI (UACC-257 melanoma): > 100 µM

CCCCCCCCCCCCCCCCCCNc1ccn(C2OC(CO)C(O)C2O)c(=O)n1 (stereo not drawn)
TGI (LOX IMVI melanoma): > 100 µM
TGI (SF-268 CNS): > 100 µM
TGI (UACC-257 melanoma): > 100 µM

CC1=C(O)C(=O)C[C@]2(C)[C@H]3CC=C4[C@@H]5CC(C)(C)CC[C@@H]5C(=O)[C@H](O)[C@@]4(C)[C@]3(C)CC[C@@H]12
TGI (SF-268 CNS): > 50 µM
TGI (UACC-257 melanoma): > 50 µM

CCOC(=O)c1sc2nc(SC)nc3c2c1NCN3c1ccc2c(c1)OCCCO2
TGI (LOX IMVI melanoma): > 100 µM
TGI (SF-268 CNS): > 100 µM
TGI (UACC-257 melanoma): > 100 µM

O=C(Cn1cc(F)c(=O)[nH]c1=O)C12CC3CC(CC(C3)C1)C2
TGI (LOX IMVI melanoma): > 100 µM
TGI (SF-268 CNS): > 100 µM
TGI (UACC-257 melanoma): > 100 µM

CC(=O)CCC(=O)C(=[N+]=[N-])S(=O)(=O)c1ccccc1
TGI (LOX IMVI melanoma): > 100 µM
TGI (SF-268 CNS): > 100 µM
TGI (UACC-257 melanoma): > 100 µM

C=C[C@H]1CC[C@H]2[C@@H]3CC=C4C[C@@H](OC5OCC(O)C(O)C5O)CC[C@]4(C)[C@H]3CC[C@]12C (stereo partly drawn)
TGI (LOX IMVI melanoma): 26.7 µM
TGI (SF-268 CNS): 36.2 µM
TGI (UACC-257 melanoma): > 100 µM

CN(C(=O)c1ccc(Cl)cc1)C(=S)N1CCN(c2ccccn2)CC1
TGI (DLD-1 colon): > 100 µM
TGI (DMS 114 small cell lung): > 100 µM
TGI (DMS 273 small cell lung): > 100 µM
TGI (HOP-18 NSCLC): > 100 µM
TGI (KM20L2 colon): > 100 µM
TGI (LOX IMVI melanoma): > 100 µM
TGI (LXFL 529 NSCLC): > 100 µM
TGI (M19-MEL melanoma): > 100 µM
TGI (SF-268 CNS): > 100 µM
TGI (SNB-78 CNS): > 100 µM
TGI (UACC-257 melanoma): > 100 µM

O=C1NCCCC12CCCNC2=O
TGI (DMS 114 small cell lung): > 100 µM
TGI (DMS 273 small cell lung): > 100 µM
TGI (KM20L2 colon): > 100 µM
TGI (LOX IMVI melanoma): > 100 µM
TGI (LXFL 529 NSCLC): > 100 µM
TGI (M19-MEL melanoma): > 100 µM
TGI (SF-268 CNS): > 100 µM
TGI (UACC-257 melanoma): > 100 µM
TGI (XF 498 CNS): > 100 µM

CCOP1(=O)C=C(Sc2ccc([N+](=O)[O-])cc2[N+](=O)[O-])C(C)(C)O1 (stereo not drawn)
TGI (LOX IMVI melanoma): > 34.9 µM
TGI (SF-268 CNS): 49.5 µM
TGI (UACC-257 melanoma): 25 µM
